For one assay, the target named is T1, Human sEH (HsEH) (Homo sapiens, UniProt P34913).
T1 sequence (P34913 1-555): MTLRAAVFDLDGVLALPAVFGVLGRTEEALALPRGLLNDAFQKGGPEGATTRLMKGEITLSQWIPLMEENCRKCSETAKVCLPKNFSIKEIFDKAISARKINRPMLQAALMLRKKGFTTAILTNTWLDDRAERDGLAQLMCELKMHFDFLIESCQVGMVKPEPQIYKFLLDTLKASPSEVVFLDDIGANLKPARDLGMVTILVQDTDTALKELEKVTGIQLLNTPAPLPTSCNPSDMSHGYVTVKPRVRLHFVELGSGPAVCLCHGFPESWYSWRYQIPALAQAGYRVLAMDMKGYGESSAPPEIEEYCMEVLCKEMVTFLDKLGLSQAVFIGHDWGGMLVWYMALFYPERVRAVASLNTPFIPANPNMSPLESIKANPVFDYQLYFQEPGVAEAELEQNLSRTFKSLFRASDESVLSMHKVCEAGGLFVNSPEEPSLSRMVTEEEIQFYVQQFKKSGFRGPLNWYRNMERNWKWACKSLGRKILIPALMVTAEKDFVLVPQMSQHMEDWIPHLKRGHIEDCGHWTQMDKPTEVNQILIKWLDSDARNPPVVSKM
The experiment in a line: Inhibition of recombinant human sEH (HsEH). The format is biochemical. Particulars: HsEH 0.26 μM.

Assay [1] has as its target T2, recombinant mouse sEH (MsEH) (Mus musculus, UniProt P34914).
T2 sequence (P34914 1-554): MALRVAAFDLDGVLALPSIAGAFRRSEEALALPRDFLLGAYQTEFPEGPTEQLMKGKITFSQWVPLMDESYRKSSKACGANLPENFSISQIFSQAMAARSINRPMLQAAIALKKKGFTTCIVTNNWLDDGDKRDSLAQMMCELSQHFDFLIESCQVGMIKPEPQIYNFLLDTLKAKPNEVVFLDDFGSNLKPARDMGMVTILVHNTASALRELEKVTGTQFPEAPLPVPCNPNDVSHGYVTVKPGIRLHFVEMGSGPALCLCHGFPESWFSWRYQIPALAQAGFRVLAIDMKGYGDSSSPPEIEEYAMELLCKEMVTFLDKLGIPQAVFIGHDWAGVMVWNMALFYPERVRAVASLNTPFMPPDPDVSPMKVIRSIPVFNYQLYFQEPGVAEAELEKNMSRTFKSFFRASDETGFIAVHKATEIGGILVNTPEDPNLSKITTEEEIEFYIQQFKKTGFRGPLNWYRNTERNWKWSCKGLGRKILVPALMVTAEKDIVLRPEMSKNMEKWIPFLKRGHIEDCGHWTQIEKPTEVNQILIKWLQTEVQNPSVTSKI
As to the kind of experiment: Inhibition of recombinant mouse sEH (MsEH). The format is biochemical.

Setting [2] is: Table 1, MsEH 0.13 μM, read-out: Mouse sEH IC50.
The mark [3] stands for this setting: Table 2, MsEH 0.13 μM, read-out: Mouse sEH IC50.

Where two headings read alike, the source gives them in different places.

Results on 30 molecules are retold here after US6756210B2, “Linoleic acid diol and glucuronide conjugate levels as diagnostic markers of disorders of abnormal regulation of cytochrome P450 metabolism of unsaturated fatty acids” (The Regents of the University of California, priority 2001, dated 2004).

The term IC50 denotes the concentration at which inhibition is half-maximal. As to `CCC(C)NC(=O)NC1CCCCC1` (stereo not shown) [compound 479], the IC50 at Human sEH (HsEH) (Table 1) was 5 ± 0.1 µM; in assay [1] (setting [2]), 0.6 ± 0.06 µM.
In the same order, the values of `CC(C)(C)C1CCC(NC(=O)NC2CCCCC2)CC1` (stereo not shown) [compound 428] are 0.1 ± 0.01 µM and 0.05 ± 0.1 µM.
In the same order, the values of `CCCCCCCCNC(=O)NC1CCCCC1` [compound 168] are 0.12 ± 0.01 µM and 0.06 ± 0.01 µM.
`O=C(Nc1ccc(Cl)c(Cl)c1)Nc1ccc(Cl)c(Cl)c1` [compound 299]: at Human sEH (HsEH) (Table 1), the IC50 worked out at 0.26 µM.
With `O=C(NCCNc1ccccc1)NC1CCCCC1` [compound 463], the values for the IC50 (on Human sEH (HsEH) (Table 1); in assay [1] (setting [2])) were 8.3 ± 0.4 µM and 0.9 ± 0.07 µM, respectively.
Turning to `CCCCCCNC(=O)Nc1ccccc1` [compound 157], the IC50 at Human sEH (HsEH) (Table 1) worked out at 1.43 ± 0.03 µM; in assay [1] (setting [2]) it was 0.85 ± 0.01 µM.
As to `Cc1ccc(NC(=O)NC2CCCCC2)cc1` [compound 108], the IC50 at Human sEH (HsEH) (Table 1) worked out at 0.17 ± 0.01 µM; in assay [1] (setting [2]), 0.13 ± 0.01 µM.
In the same order, the values of `O=C(NCc1ccc(Cl)cc1)NC1CCCCC1` [compound 193] are 0.19 ± 0.01 µM and 0.05 ± 0.01 µM.
Turning to `Cc1ccc(C(=O)C2OC2c2ccc(-c3ccccc3)cc2)cc1` (racemic) [R=4-C6H5—C6H4, R′=4-CH3—C6H4, X—Y=C═O, ±], the IC50 at Human sEH (HsEH) (Table 2) was determined as 0.19 ± 0.03 µM; in assay [1] (setting [3]), 0.1 ± 0.01 µM.
Regarding `CCCCCCCCCCNC(=O)Nc1ccccc1` [compound 148], the IC50 on Human sEH (HsEH) (Table 1) was 0.61 ± 0.02 µM; in assay [1] (setting [2]), 0.21 ± 0.01 µM.
Consider `CCNC(=O)OC1CCCCC1` [compound 255], for which the IC50 on Human sEH (HsEH) (Table 1) turned out to be 2.88 ± 0.04 µM; in assay [1], 0.48 ± 0.07 µM.
For the molecule `O=C(NCCc1cnc[nH]1)NC1CCCCC1` [compound 461], the figures for the IC50 (at Human sEH (HsEH) (Table 1); in assay [1] (setting [2])) were 0.55 ± 0.02 µM and 0.42 ± 0.01 µM, respectively.
In the same order, the values of `Nc1ccc(CNC(=O)NC2CCCCC2)cc1` [compound 379] are 1.5 ± 0.1 µM and 0.05 ± 0.01 µM.
As for `OC(c1ccccc1)C1OC1c1ccccc1` (racemic) [R=C6H5, R′=C6H5, X—Y=CH—OH, ±], the IC50 at Human sEH (HsEH) (Table 2) was found to be 22 ± 2 µM; in assay [1] (setting [3]) it was 12.6 ± 0.9 µM.
In the case of `CCCCCCCCCCCCNC(=O)NC(C)(C)CC` [compound 562], the values for the IC50 (at Human sEH (HsEH) (Table 1); in assay [1] (setting [2])) were 15 ± 3 µM and 0.5 ± 0.1 µM, respectively.
For `CC1CCC(NC(=O)NC2CCCCC2)CC1` (stereo not shown) [compound 538], the IC50 came out at 0.1 ± 0.01 µM at Human sEH (HsEH) (Table 1) and 0.05 ± 0.01 µM in assay [1] (setting [2]).
Regarding `OC(c1ccccc1)C1OC1c1ccc(-c2ccccc2)cc1` (racemic) [R=4-C6H5—C6H4, R′=C6H5, X—Y=CH—OH, ±], the IC50 on Human sEH (HsEH) (Table 2) came out at 0.72 ± 0.03 µM; in assay [1] (setting [3]) it was 0.51 ± 0.04 µM.
Regarding `O=C(CC1CCCCC1)NC1CCCCC1` [compound 187], the IC50 on Human sEH (HsEH) (Table 1) turned out to be 0.42 ± 0.03 µM; in assay [1] (setting [2]) it was 0.05 ± 0.01 µM.
As to `CCOC(CNC(=O)Nc1ccc(C(C)C)cc1)OCC` [compound 159], the IC50 at Human sEH (HsEH) (Table 1) amounted to 3.4 ± 0.04 µM; in assay [1] (setting [2]) it was 0.59 ± 0.03 µM.
In the same order, the values of `O=C(NCC1CCCCC1)C1CCCCC1` [compound 374] are 2.03 ± 0.07 µM and 0.25 ± 0.01 µM.
In the same order, the values of `CCCCCCNC(=O)NC1CCCCC1` [compound 286] are 0.07 ± 0.02 µM and 0.11 ± 0.03 µM.
Regarding `O=C(NC1CCCCC1)NC1CC2CCC1C2` (stereo not shown) [compound 543], the IC50 stood at 0.1 ± 0.01 µM on Human sEH (HsEH) (Table 1) and 0.05 ± 0.01 µM in assay [1] (setting [2]).
In the case of `O=C(NCc1ccccc1)NC1CCCCC1` [compound 270], the IC50 on Human sEH (HsEH) (Table 1) is 1.9 ± 0.1 µM; in assay [1] (setting [2]), 0.05 ± 0.01 µM.
As to `O=[N+]([O-])c1ccc(C2OC2CO)cc1` (racemic) [R=4-NO2—C6H4, R′=H, X—Y=CH—OH, ±], in assay [1] (setting [3]), the IC50 came out at 5 ± 1 µM.
As for `CCCCCCCCNC(=O)NCCCCCC` [compound 175], the IC50 at Human sEH (HsEH) (Table 1) is 0.24 ± 0.01 µM.
Consider `OC[C@@H]1O[C@H]1c1ccccc1` [R=C6H5, R′=H, X—Y=CH—OH, S, S], for which, in assay [1] (setting [3]), the IC50 stood at 2400 ± 46 µM.
Turning to `O=C(Nc1cccc(Cl)c1)NC1CCCCC1` [compound 44], the IC50 in assay [1] (setting [2]) was found to be 0.07 ± 0.01 µM.
On the same count and under the same terms, next, `CCCCCCCCCCCCNC(=O)OC1CCCCC1` [compound 514]: 0.27 ± 0.01 µM.
For the molecule `O=[N+]([O-])c1ccc([C@H]2O[C@@H]2CO)cc1` [R=4-NO2—C6H4, R′=H, X—Y=CH—OH, R, R], the IC50 in assay [1] (setting [3]) is 1200 ± 25 µM.
As for `CCCCCCCCCCCCCC(=O)NC1CCCCC1` [compound 515], the IC50 in assay [1] (setting [2]) was 0.19 ± 0.05 µM.
